In test [1] the target is T1, cystathionine-γ-lyase (CSE) (Homo sapiens, UniProt P32929).
T1 construct: gene CTH; N-terminal GST fusion (pGEX-4T3), expressed in E. coli BL21(DE3) Codon Plus; eluted with reduced GSH, no tag cleavage described
The test can be described thus: methylene blue H2S assay, secondary plot of Lineweaver-Burk slopes. The test is classed as biochemical.

The target of test [2] is T1, cystathionine-γ-lyase (CSE). Put plainly: methylene blue H2S assay, concentration-response. Format: biochemical.
The target of test [3] is T2, cystathionine-ß-synthase (CBS) (Homo sapiens, UniProt P35520).
T2 construct: N-terminal GST fusion (pGEX-Kg), expressed in E. coli BL21(DE3) Codon Plus; eluted with reduced GSH, no tag cleavage described; homotetramer
T2 sequence (P35520 1-551): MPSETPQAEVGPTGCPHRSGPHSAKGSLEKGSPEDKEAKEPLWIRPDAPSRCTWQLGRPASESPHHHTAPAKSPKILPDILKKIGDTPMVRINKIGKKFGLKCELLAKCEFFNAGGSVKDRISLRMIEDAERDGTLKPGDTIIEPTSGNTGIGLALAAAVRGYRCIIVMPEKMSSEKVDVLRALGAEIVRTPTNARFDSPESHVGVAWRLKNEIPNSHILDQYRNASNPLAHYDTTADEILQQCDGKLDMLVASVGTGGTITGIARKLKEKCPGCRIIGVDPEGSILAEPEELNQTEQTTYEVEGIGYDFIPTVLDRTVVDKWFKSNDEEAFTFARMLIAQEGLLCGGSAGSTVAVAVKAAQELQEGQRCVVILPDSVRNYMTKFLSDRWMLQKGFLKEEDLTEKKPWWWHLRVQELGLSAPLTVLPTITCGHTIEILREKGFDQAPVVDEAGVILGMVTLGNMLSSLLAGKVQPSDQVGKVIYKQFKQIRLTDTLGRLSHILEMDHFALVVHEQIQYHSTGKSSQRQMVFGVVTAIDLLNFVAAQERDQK
Put plainly: absorbance spectroscopy. The following applies: bound at Lys119. The test is classed as binding.

The target in test [4] is T1, cystathionine-γ-lyase (CSE). The test can be described thus: absorbance spectroscopy. Format: binding. The note with it: covalently attached to Lys212.

T1 sequence (P32929 whole entry, the tested form may be a part): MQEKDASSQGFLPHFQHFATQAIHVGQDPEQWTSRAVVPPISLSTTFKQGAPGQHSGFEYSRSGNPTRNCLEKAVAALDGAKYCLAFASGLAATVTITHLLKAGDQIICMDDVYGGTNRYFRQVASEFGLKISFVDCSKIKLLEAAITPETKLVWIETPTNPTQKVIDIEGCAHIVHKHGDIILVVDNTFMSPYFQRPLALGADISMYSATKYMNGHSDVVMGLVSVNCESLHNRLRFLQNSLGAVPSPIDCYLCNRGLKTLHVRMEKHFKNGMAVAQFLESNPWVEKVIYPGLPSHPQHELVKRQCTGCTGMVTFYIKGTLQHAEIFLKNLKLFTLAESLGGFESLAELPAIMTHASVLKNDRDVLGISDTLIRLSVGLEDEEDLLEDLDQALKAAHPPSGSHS

In general, Ki refers to a dissociation constant, usually derived from enzyme kinetics or from competition with a known ligand. A lower Ki goes with tighter binding. The IC50 is the concentration that inhibits the measured activity by half. A high value points to weaker potency in that assay. Compound `C#CCNC(=O)[C@@H]1CSC(=O)N1` [2a, compound 2a] displayed a Ki in test [1] of 13 µM. Moreover, the IC50 in test [2] came to 6.3 ± 1 µM. In the case of `C#CCC(N)C(=O)O` (centres unmarked) [PAG], the IC50 in test [2] amounted to 42.2 ± 1.1 µM. As for `Cc1ncc(COP(=O)(O)O)c(C=O)c1O` [PLP], the absorbance spectroscopy entry in test [3] is “enzymes are correctly folded and bind the respective prosthetic groups”; in test [4] it was “enzymes are correctly folded and bind the respective prosthetic groups”.

These data come from publication PMC5052628, “Fragment-based de novo design of a cystathionine γ-lyase selective inhibitor blocking hydrogen sulfide production” (Scientific Reports, 2016).
